This passage reports IC50 results from ChEMBL document CHEMBL4673346, “Discovery of a benzimidazole series as the first highly potent and selective ACSL1 inhibitors” (Bioorg Med Chem Lett, 2021).

In general, IC50 refers to the point on the concentration scale where inhibition reaches its midpoint.

For assay [1], the target named is T1, Long-chain-fatty-acid--CoA ligase 6 (Homo sapiens, UniProt Q9UKU0).
T1 sequence (Q9UKU0 whole entry): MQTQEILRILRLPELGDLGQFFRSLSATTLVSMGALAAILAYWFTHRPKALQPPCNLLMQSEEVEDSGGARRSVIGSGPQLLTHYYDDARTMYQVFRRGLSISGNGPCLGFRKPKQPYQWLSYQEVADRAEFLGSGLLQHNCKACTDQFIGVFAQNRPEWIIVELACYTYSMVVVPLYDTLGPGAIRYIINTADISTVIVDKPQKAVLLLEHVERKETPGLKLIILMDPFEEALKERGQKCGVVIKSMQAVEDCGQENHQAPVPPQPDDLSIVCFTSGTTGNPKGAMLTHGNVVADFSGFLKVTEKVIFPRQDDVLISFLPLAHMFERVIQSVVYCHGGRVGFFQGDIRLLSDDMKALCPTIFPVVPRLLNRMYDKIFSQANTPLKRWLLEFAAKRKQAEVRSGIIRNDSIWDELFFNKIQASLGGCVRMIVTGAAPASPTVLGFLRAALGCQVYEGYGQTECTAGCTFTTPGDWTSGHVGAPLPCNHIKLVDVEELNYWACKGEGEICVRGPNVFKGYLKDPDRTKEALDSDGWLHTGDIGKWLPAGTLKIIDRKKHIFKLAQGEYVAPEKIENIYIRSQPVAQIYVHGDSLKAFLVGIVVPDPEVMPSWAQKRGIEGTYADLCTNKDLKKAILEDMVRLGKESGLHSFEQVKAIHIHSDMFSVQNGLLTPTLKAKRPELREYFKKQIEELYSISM
The assay can be described thus: Inhibition of recombinant human ACSL6 assessed as reduction in […] prodution incubated for 60 mins in presence of Coenzyme A, ATP and MgCl2 by MALDI-TOF MS analysis.

In assay [2] the target is Long-chain-fatty-acid--CoA ligase 4 (Homo sapiens, UniProt O60488). The assay can be described thus: Inhibition of recombinant human ACSL4 assessed as reduction in […] prodution incubated for 120 mins in presence of Coenzyme A, ATP and MgCl2 by MALDI-TOF MS analysis.
Long-chain-fatty-acid--CoA ligase 4, sequence (O60488 whole entry): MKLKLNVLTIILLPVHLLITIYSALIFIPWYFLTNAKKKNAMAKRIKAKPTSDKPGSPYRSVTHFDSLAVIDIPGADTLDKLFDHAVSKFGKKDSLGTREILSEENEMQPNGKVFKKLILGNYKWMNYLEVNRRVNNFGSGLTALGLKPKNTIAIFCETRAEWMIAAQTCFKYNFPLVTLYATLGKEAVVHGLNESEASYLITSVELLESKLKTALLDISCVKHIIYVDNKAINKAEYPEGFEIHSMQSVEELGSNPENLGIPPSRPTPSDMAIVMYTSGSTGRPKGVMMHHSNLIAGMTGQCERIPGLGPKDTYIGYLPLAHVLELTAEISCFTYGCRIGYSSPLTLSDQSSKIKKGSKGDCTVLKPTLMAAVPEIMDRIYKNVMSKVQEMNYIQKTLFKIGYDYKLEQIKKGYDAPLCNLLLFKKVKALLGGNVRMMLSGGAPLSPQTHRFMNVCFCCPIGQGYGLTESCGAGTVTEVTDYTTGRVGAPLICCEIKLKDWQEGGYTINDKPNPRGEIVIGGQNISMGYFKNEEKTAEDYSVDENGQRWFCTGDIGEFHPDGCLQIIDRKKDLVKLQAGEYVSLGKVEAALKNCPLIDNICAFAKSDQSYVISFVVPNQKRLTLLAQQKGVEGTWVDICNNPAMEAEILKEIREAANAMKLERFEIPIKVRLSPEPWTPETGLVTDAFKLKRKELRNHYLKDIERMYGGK
The target in assay [3] is T2, Long-chain-fatty-acid--CoA ligase 5 (Homo sapiens, UniProt Q9ULC5).
T2 sequence (Q9ULC5 whole entry): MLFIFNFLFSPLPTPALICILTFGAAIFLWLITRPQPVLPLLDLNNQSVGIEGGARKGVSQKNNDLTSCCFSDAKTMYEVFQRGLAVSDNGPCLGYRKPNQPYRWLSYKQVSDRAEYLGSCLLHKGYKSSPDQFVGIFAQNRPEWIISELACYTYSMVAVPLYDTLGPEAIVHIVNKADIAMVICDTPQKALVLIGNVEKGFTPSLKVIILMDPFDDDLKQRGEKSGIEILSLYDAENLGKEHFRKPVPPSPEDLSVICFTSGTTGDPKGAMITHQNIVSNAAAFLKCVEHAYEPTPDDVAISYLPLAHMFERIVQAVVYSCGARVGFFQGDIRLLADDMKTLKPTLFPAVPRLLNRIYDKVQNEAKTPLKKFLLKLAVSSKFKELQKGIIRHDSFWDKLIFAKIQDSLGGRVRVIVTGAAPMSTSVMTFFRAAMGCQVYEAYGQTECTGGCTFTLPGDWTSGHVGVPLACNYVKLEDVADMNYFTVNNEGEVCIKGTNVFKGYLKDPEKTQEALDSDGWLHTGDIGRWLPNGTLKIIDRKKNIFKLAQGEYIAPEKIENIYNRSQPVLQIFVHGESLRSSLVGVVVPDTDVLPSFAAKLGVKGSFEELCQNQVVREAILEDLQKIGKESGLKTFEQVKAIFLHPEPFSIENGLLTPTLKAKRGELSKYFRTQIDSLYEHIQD
Nature of the assay: Inhibition of recombinant human ACSL5 assessed as reduction in […] prodution incubated for 90 mins in presence of Coenzyme A, ATP and MgCl2 by MALDI-TOF MS analysis.

The target of assay [4] is Fatty acid CoA ligase Acsl3 (Homo sapiens, UniProt O95573). Nature of the assay: Inhibition of recombinant human ACSL3 assessed as reduction in […] prodution incubated for 90 mins in presence of Coenzyme A, ATP and MgCl2 by MALDI-TOF MS analysis.
Fatty acid CoA ligase Acsl3, sequence (O95573 whole entry): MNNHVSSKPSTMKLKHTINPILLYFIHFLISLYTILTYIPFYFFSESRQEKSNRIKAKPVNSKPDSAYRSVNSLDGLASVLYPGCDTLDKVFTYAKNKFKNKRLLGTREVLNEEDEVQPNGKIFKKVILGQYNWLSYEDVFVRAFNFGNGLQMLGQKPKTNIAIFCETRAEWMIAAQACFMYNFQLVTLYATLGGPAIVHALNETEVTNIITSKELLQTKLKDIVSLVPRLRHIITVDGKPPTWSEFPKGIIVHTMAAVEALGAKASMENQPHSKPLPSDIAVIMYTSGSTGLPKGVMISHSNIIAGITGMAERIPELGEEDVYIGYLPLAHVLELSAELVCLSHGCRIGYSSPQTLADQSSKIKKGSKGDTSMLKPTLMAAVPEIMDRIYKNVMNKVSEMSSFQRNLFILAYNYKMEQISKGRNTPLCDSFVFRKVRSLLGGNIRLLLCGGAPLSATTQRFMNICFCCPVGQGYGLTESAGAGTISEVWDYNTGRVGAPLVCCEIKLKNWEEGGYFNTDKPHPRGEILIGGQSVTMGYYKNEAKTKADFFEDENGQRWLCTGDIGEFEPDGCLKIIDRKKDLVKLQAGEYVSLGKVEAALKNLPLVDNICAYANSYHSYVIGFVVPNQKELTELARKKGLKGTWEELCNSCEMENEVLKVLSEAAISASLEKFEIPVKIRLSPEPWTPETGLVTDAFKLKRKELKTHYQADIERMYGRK
Assay [5] deals with T3, Long-chain-fatty-acid--CoA ligase 1 (Homo sapiens, UniProt P33121).
T3 sequence (P33121 whole entry): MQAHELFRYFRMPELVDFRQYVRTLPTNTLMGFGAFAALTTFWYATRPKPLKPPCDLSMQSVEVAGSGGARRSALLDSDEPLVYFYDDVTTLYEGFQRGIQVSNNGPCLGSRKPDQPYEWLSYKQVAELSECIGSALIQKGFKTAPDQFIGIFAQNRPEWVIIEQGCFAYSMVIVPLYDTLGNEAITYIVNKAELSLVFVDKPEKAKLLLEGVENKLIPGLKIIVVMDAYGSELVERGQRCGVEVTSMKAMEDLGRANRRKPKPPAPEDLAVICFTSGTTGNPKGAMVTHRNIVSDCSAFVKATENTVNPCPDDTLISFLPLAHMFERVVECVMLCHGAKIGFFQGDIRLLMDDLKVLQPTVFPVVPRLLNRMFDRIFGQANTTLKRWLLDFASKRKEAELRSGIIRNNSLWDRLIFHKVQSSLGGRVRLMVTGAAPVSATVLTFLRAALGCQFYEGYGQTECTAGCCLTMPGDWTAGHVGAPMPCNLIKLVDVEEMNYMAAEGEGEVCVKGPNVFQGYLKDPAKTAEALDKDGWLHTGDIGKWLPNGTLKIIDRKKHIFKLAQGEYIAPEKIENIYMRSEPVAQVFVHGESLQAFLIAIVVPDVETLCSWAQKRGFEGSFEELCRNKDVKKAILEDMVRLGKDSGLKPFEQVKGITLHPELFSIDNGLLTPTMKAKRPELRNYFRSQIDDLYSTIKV
Nature of the assay: Inhibition of ACSL1 (unknown origin) assessed as reduction in […] prodution incubated for 90 mins in presence of Coenzyme A, ATP and MgCl2 by MALDI-TOF MS analysis.

Consider `O=C(O)CCCCCCOc1ccc2oc3ccccc3c(=O)c2c1`, for which the IC50 is 6.2 µM in assay [1]; more than 200 µM in assay [2]; more than 200 µM in assay [3]; 114 µM in assay [4]; 310 nM in assay [5].

For the compound `O=c1c2ccccc2oc2ccc(O[C@H]3CC[C@@H](C(=O)O)CC3)cc12`, the 50% inhibitory concentration (IC50) was 70 µM in assay [1]; more than 200 µM in assay [2]; more than 200 µM in assay [3]; 69 µM in assay [4]; 240 nM in assay [5].

As to `O=C(O)CCCCOc1ccc2oc3ccccc3c(=O)c2c1`, the IC50 in assay [1] is 93 µM; in assay [2] it was more than 200 µM; in assay [3], more than 200 µM; in assay [4], more than 200 µM; in assay [5], 1700 nM.
